The values below come from PMC10096842, “Identification of Flavone Derivative Displaying a 4′-Aminophenoxy Moiety as Potential Selective Anticancer Agent in NSCLC Tumor Cells” (Molecules, 2023).

A short description of series [1]: LogP determination (1-octanol/PBS partition, UV-vis). It is filed as physicochemical. To be noted: for logP: 1-octanol/PBS, pH 7.4, 1-octanol/PBS pH 7.4, read-out: Experimental LogP. The protocol: LogP was determined as previously described. Briefly, solutions of each APF were prepared in 1-octanol, and UV-vis spectra were acquired to determine the λmax. After having placed 2.5 mL of each solution in 10 mL conical centrifuge tubes, PBS was added (2.5 mL, pH 7.4) and the biphasic system was mixed using a vortex mixer (VELP Scientifica, Usmate Velate MB, Italy) followed by centrifugation (2000× g, 5 min). Then, the octanol phase absorption was measured at λmax. The partition coefficient Ko/w was calculated according to the following equation:Ko/w = [APF]oct/[APF]PBS = […] where Ai is the initial measured absorbance in octanol, pre-extraction, and Af is the final measured absorbance in octanol, post-extraction.

In series [2] the test system is human dermal fibroblasts (HDF). The series is described as follows: MTT cell viability assay, HDF. It is filed as cell-based. Particulars: Fibroblast, 72 h. The protocol:
(§1) The human non-small cell lung cancer (NSCLC) and Human Dermal Fibroblasts (HDF) cell lines were all obtained from the American Type Culture Collection (ATCC). The H1975 (CRL-5908™) cell line was grown in RPMI 1640 medium (ECB2000) while the A549 (CCL-185™) and HDF were grown in complete DMEM medium (ECM0095) All cultures were supplemented with 10% fetal bovine serum (FBS), 2 mM L-glutamine, 100 U/mL penicillin, and 100 µg/mL streptomycin,. All cell lines were routinely maintained in 75 cm^2 flasks in a cell incubator at 37 °C, 5% CO2, and 95% relative humidity. The cell cultures were detached by trypsinization with 0.5% trypsin in PBS containing 0.025% EDTA. All cell culture reagents were supplied by Euroclone (Milan, Italy).
(§2) The number of metabolically active cells, and thus cell viability, was assessed by a 3-(4,5-dimethylthiazol-2-yl)-2,5-diphenyltetrazolium bromide (MTT) assay as previously described. The NSCLC cell lines (A549 and H1975) and HDF were seeded in 96-well plates to reach 50% confluence at 24 h; then, the medium was removed and replaced with 0.2 mL of fresh culture medium containing increasing compound concentrations (0–160 µM). After 72 h, the medium from each well was removed and replaced with fresh medium supplemented with MTT at a final concentration of 200 µg/mL. After incubation for 4 h at 37 °C, 0.2 mL of DMSO was added to each well followed by multiwell shaking for 4 min. The absorbance was read on a multiwell scanning microplate reader (BioTek Synergy HT MicroPlate Reader Spectrophotometer, BioTek Instruments Inc., Winooski, VT, USA) at 570 nm using the extraction buffer as a blank. The optical density in the control group (untreated cells) was considered as 100% viability. The relative cell viability (%) was calculated as (OD570 of treated samples/OD570 of untreated samples) × 100. Dose-dependent curves were therefore generated for the cytotoxic studies. The 50% inhibiting concentration (IC50) was determined by non-linear regression analysis with a three-parameter fit by utilizing SigmaPlot 12.0 Software, USA, Systat Software, Inc. SigmaPlot for Windows. Each experiment was performed at least five times in triplicate.
For orientation: Tetrazolium dyes change colour on reduction, which living cells bring about.

The next series deals with A549 NSCLC cells. The series is described as follows: MTT cell viability assay, A549. It is filed as cell-based, human. Particulars: for IC50: Homo sapiens, A549, 72 h, MTT; for SI (Selectivity Index): IC50 HDF / IC50 A549. The protocol:
as §1, §2

In a further series the test system is H1975 NSCLC cells. In words: MTT cell viability assay, H1975. It is filed as cell-based, human. Particulars: for IC50: Homo sapiens, NCI-H1975, 72 h, H1975, 72 h, MTT; for SI (Selectivity Index): IC50 HDF / IC50 H1975. The protocol: as §1, §2
In a further series the test system is advanced NSCLC. Also noted: method as in PMID 12177774, PMID 17912235, PMID 36674503. Particulars: treatment of advanced NSCLC; cited from earlier work.

Turning to `Nc1ccc(Oc2ccc3oc(-c4ccc(Oc5ccccc5)cc4)cc(=O)c3c2)cc1` [APF-5, 6-(4-aminophenoxy)-2-(4′-phenoxy)phenyl-4H-chromen-4-one], in series [1], the logP is 3.2 ± 0.3. The IC50 in series [2] came to 55 ± 2 µM; in the series on A549 NSCLC cells, 7 ± 3 µM; in the series with H1975 NSCLC cells it was 10 ± 5 µM. In addition, the results for the “SI (Selectivity Index)” value in the series on A549 NSCLC cells and in the series with H1975 NSCLC cells were 7 and 5.5, respectively.
As for `Nc1ccc(Oc2cccc3oc(-c4cccc(Oc5ccccc5)c4)cc(=O)c23)cc1` [APF-4, 5-(4-aminophenoxy)-2-(3′-phenoxy)phenyl-4H-chromen-4-one], the logP in series [1] amounted to 2.9 ± 0.2. Further, the figures for the IC50 (in series [2]; in the series with A549 NSCLC cells; with H1975 NSCLC cells) were over 160 µM, 32 ± 5 µM and over 160 µM, respectively. The “SI (Selectivity Index)” value with A549 NSCLC cells is recorded as over 5.
Regarding `COc1cccc2c1C(=O)c1c(O)c3c(c(O)c1C2=O)C[C@@](O)(C(=O)CO)C[C@@H]3O[C@H]1C[C@H](N)[C@H](O)[C@H](C)O1` [Doxorubicin, reference compound], the values for the IC50 (in series [2]; in the series on A549 NSCLC cells; in the series on H1975 NSCLC cells) were 14 ± 4 µM, 0.8 ± 0.2 µM and 2.5 ± 0.4 µM, respectively. Moreover, the “SI (Selectivity Index)” value with A549 NSCLC cells came to 18; with H1975 NSCLC cells it was 6. The overall response rate with advanced NSCLC was 30–50%.
`Nc1ccc(Oc2ccc3oc(-c4ccccc4)cc(=O)c3c2)cc1` [APF-2, 6-(4-aminophenoxy)-2-(phenyl)-4H-chromen-4-one]: the “Experimental LogP” value in series [1] (1-octanol/PBS pH 7.4) worked out at 2.1 ± 0.3. The logP in series [1] was 2.3. Moreover, the IC50 in series [2] is over 160 µM; in the series with A549 NSCLC cells, 22 ± 3 µM; with H1975 NSCLC cells, 50 ± 5 µM. Further, the results for the “SI (Selectivity Index)” value in the series with A549 NSCLC cells and with H1975 NSCLC cells were over 8 and over 3, respectively.
For `Nc1ccc(Oc2ccc3c(=O)cc(-c4cccc(Oc5ccccc5)c4)oc3c2)cc1` [APF-3, 7-(4-aminophenoxy)-2-(3′-phenoxy)phenyl-4H-chromen-4-one], the logP in series [1] came to 3.3 ± 0.2. For the same compound, the half-inhibitory concentration (IC50) in series [2] stood at 80 ± 3 µM; in the series with A549 NSCLC cells it was 33 ± 2 µM; in the series on H1975 NSCLC cells, 40 ± 4 µM. Moreover, the “SI (Selectivity Index)” value with A549 NSCLC cells and in the series on H1975 NSCLC cells was 2 in each case.

As a reminder, the logP is a log measure of how a compound divides between an organic and an aqueous phase. In general, IC50 refers to the midpoint of a concentration-inhibition curve.
